Results: ChEMBL document CHEMBL4000206, “An efficient anticoagulant candidate: Characterization, synthesis and in vivo study of a fondaparinux analogue Rrt1.17” (Eur J Med Chem, 2017)
Active and inactive are the calls of the source. The calls are words filed in the database; no cut-off is given here.

Columns and labels:
Coagulation factor X [1] = target: T1, Coagulation factor X (Homo sapiens, UniProt P00742); assay: Inhibition of factor 10a (unknown origin) using S-2765 as substrate assessed as compound potency preincubated with AT-3 followed by factor 10a addition for 60 secs and subsequent addition of substrate for 60 secs measured after 4 mins
T1 sequence (P00742 41-179 limits assumed): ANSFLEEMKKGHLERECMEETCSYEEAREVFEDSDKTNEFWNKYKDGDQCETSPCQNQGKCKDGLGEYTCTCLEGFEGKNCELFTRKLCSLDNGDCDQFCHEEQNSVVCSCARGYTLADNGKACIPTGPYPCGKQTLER
T1 sequence (P00742 235-488 limits assumed): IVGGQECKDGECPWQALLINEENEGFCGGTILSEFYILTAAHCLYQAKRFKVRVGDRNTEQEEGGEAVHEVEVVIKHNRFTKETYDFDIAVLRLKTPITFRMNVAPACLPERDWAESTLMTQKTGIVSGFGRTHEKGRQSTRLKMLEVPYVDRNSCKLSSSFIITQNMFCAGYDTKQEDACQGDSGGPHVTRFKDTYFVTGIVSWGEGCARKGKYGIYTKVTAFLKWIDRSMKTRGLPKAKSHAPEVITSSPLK

Coagulation factor X [2] = target: T1, Coagulation factor X; assay: Inhibition of factor 10a (unknown origin) using S-2765 as substrate preincubated with AT-3 followed by factor 10a addition for 60 secs and subsequent addition of substrate for 60 secs measured after 4 mins
Rattus norvegicus [3] = assay: Antithrombotic activity in Wistar rat venous thrombosis model assessed as reduction in weight of vein thrombus at 100 to 500 IU/kg, sc administered 1 hr prior to induction of thrombosis measured after 30 mins; assay type: functional, organism-based
Rattus norvegicus [4] = assay: Antithrombotic activity in Wistar rat venous thrombosis model assessed as reduction in weight of vein thrombus at 300 IU/kg, sc administered 1 hr prior to induction of thrombosis measured after 30 mins; assay type: functional, organism-based

| Structure (SMILES) | INH (Coagulation factor X [1]) | IC50 (Coagulation factor X [2]) | Activity (Rattus norvegicus [3]) | Activity (Rattus norvegicus [4]) |
| --- | --- | --- | --- | --- |
| CO[C@H]1O[C@H](COS(=O)(=O)O)[C@@H](O[C@@H]2O[C@@H](C(=O)O)[C@@H](O[C@@H]3O[C@H](COS(=O)(=O)O)[C@@H](O[C@@H]4O[C@H](C(=O)O)[C@@H](O[C@H]5O[C@H](COS(=O)(=O)O)[C@@H](O)[C@H](O)[C@H]5NS(=O)(=O)O)[C@H](O)[C@H]4O)[C@H](OS(=O)(=O)O)[C@H]3N)[C@H](O)[C@H]2OS(=O)(=O)O)[C@H](O)[C@H]1NS(=O)(=O)O | 2.15 IU/mg | 494 nM | – | – |
| CO[C@H]1O[C@H](COS(=O)(=O)O)[C@@H](O[C@@H]2O[C@@H](C(=O)O)[C@@H](O[C@@H]3O[C@H](COS(=O)(=O)O)[C@@H](O[C@@H]4O[C@H](C(=O)O)[C@@H](O[C@H]5O[C@H](COS(=O)(=O)O)[C@@H](O)[C@H](O)[C@H]5NS(=O)(=O)O)[C@H](O)[C@H]4O)[C@H](OS(=O)(=O)O)[C@H]3NS(=O)(=O)O)[C@H](OS(=O)(=O)O)[C@H]2OS(=O)(=O)O)[C@H](O)[C@H]1NS(=O)(=O)O | 185 IU/mg | 9.25 nM | – | – |
| CO[C@H]1O[C@H](COS(=O)(=O)O)[C@@H](O[C@@H]2O[C@@H](C(=O)O)[C@@H](O[C@@H]3O[C@H](COS(=O)(=O)O)[C@@H](O[C@@H]4O[C@H](C(=O)O)[C@@H](O[C@H]5O[C@H](COS(=O)(=O)O)[C@@H](O)[C@H](O)[C@H]5N)[C@H](O)[C@H]4O)[C@H](OS(=O)(=O)O)[C@H]3N)[C@H](O)[C@H]2OS(=O)(=O)O)[C@H](O)[C@H]1NS(=O)(=O)O | 1.32 IU/mg | 967 nM | – | – |
| CC.O=C(O)[C@H]1O[C@@H](O[C@H]2[C@H](OS(=O)(=O)O)[C@@H](NS(=O)(=O)O)[C@H](O[C@H]3[C@H](O)[C@@H](OS(=O)(=O)O)[C@H](O[C@@H]4[C@H](O)[C@@H](CO)O[C@@H]4CS(=O)(=O)O)O[C@H]3C(=O)O)O[C@@H]2COS(=O)(=O)O)[C@H](O)[C@@H](O)[C@@H]1O[C@H]1O[C@H](COS(=O)(=O)O)[C@@H](O)[C@H](O)[C@H]1NS(=O)(=O)O | – | 20.7 nM | – | – |
| CO[C@H]1O[C@H](COS(=O)(=O)O)[C@@H](O[C@@H]2O[C@@H](C(=O)O)[C@@H](O[C@@H]3O[C@H](COS(=O)(=O)O)[C@@H](O[C@@H]4O[C@H](C(=O)O)[C@@H](O[C@H]5O[C@H](COS(=O)(=O)O)[C@@H](O)[C@H](O)[C@H]5NS(=O)(=O)O)[C@H](O)[C@H]4O)[C@H](OS(=O)(=O)O)[C@H]3NS(=O)(=O)O)[C@H](O)[C@H]2OS(=O)(=O)O)[C@H](O)[C@H]1N(C)S(=O)(=O)O | 1140 IU/mg | 1.65 nM | Active | – |
| CC.COC1O[C@H](COS(=O)(=O)O)[C@@H](O[C@@H]2O[C@@H](C(=O)O)[C@@H](O[C@@H]3O[C@H](COS(=O)(=O)O)[C@@H](O[C@@H]4O[C@H](C(=O)O)[C@@H](O[C@H]5O[C@H](COS(=O)(=O)O)[C@@H](O)[C@H](O)[C@H]5NS(=O)(=O)O)[C@H](O)[C@H]4O)[C@H](OS(=O)(=O)O)[C@H]3NS(=O)(=O)O)[C@H](O)[C@H]2OS(=O)(=O)O)[C@H](O)[C@H]1NS(=O)(=O)O (single isomer, unassigned) | 719 IU/mg | 3 nM | – | – |
| CO[C@H]1O[C@H](COS(=O)(=O)O)[C@@H](O[C@@H]2O[C@H]3C(=O)N[C@H]4[C@H](O[C@@H]3[C@H](O)[C@H]2OS(=O)(=O)O)O[C@H](COS(=O)(=O)O)[C@@H](O[C@@H]2O[C@H](C(=O)O)[C@@H](O[C@H]3O[C@H](COS(=O)(=O)O)[C@@H](O)[C@H](O)[C@H]3NS(=O)(=O)O)[C@H](O)[C@H]2O)[C@@H]4OS(=O)(=O)O)[C@H](O)[C@H]1NS(=O)(=O)O | 83.5 IU/mg | 19.9 nM | – | – |
| CO[C@H]1O[C@H](COS(=O)(=O)O)[C@@H](O[C@@H]2O[C@@H](C(=O)O)[C@@H](O[C@@H]3O[C@H](COS(=O)(=O)O)[C@@H](O[C@@H]4O[C@H](C(=O)O)[C@@H](O[C@H]5O[C@H](COS(=O)(=O)O)[C@@H](O)[C@H](O)[C@H]5NC=O)[C@H](O)[C@H]4O)[C@H](OS(=O)(=O)O)[C@H]3NS(=O)(=O)O)[C@H](O)[C@H]2OS(=O)(=O)O)[C@H](O)[C@H]1NS(=O)(=O)O | 1260 IU/mg | 1.14 nM | – | – |
| CO[C@H]1O[C@H](COS(=O)(=O)O)[C@@H](O[C@@H]2O[C@@H](C(=O)O)[C@@H](O[C@@H]3O[C@H](COS(=O)(=O)O)[C@@H](O[C@@H]4O[C@H](C(=O)O)[C@@H](O[C@H]5O[C@H](COS(=O)(=O)O)[C@@H](O)[C@H](O)[C@H]5NS(=O)(=O)O)[C@H](O)[C@H]4O)[C@H](OS(=O)(=O)O)[C@H]3NS(=O)(=O)O)[C@H](O)[C@H]2OS(=O)(=O)O)[C@H](O)[C@H]1NS(=O)(=O)O | 1170 IU/mg | 0.978 nM | – | Active |
